Here are results for 3 compounds from ChEMBL document CHEMBL1127760, “Blood-brain penetration of 5-hydroxytryptamine derivatives” (Bioorg Med Chem Lett, 1994).

Calls of active or inactive are those of the source. The calls are words filed in the database; no cut-off is given here.

Experiment [1] concerns Mus musculus. Nature of the experiment: Locomotor activity of the mice was determined at a dose of 50 ng/Kg after 30-45 min of intracerebroventricular (icv) injection; Significantly reduced. The format is functional, organism-based.
Experiment [2] deals with Mus musculus. As to the kind of experiment: Locomotor activity of the mice was determined at a dose of 50 ng/Kg after 45-60 min of intracerebroventricular (icv) injection; Significantly reduced. The format is functional, organism-based.

For the compound `COc1ccc2[nH]cc(CCNC(C)=O)c2c1`, the result in experiment [1] and in experiment [2] was Active.
As to `CCCCCCCCCCCCCCCCOP(=O)(OCCOC1CC(O)C(O)C(CO)O1)Oc1ccc2[nH]cc(CCNC(C)=O)c2c1` (stereo unspecified), the Activity result in experiment [1] and in experiment [2] was “Significantly reduced” throughout.
In the case of `CC(=O)NCCc1c[nH]c2ccc(O)cc12`, the result in experiment [1] and in experiment [2] was Active.
